Tests used:
[1] = test system: Echinochloa oryzoides (Ard.) Fritsch.; experiment: Preemergence weed control under flooded paddy conditions, ECHORC (Watergrass (Calif.)); type: in vivo; conditions: preemergence weeds, flooded paddy, rated three to four weeks after treatment; note: meaning of each grade not given here
[2] = test system: Sagittaria pygmaea, L.; experiment: Postemergence weed control under flooded paddy conditions, SAGPY (Arrowhead (Pygmaea)); type: in vivo; conditions: rated three to four weeks after treatment
[3] = test system: Monochoria vaginalis, Presl.; experiment: Postemergence weed control under flooded paddy conditions, MOOVA (Monochoria); type: in vivo; conditions: rated three to four weeks after treatment
[4] = test system: Oryza sativa, (L.) Tebonnet; experiment: Rice tolerance to post-transplant applications under flooded paddy conditions (Example 188), ORYSAT (Rice, Tebonnet); conditions: rated three to four weeks after treatment
[5] = test system: Monochoria vaginalis, Presl.; experiment: Preemergence weed control under flooded paddy conditions, MOOVA (Monochoria); type: in vivo; conditions: preemergence weeds, flooded paddy, rated three to four weeks after treatment; note: meaning of each grade not given here
[6] = test system: Cyperus iria; experiment: Preemergence weed control under flooded paddy conditions, CYPIR (Rice Flatsedge); type: in vivo; conditions: preemergence weeds, flooded paddy, rated three to four weeks after treatment; note: meaning of each grade not given here
[7] = test system: Cyperus serotinus, Rottb.; experiment: Preemergence weed control under flooded paddy conditions, CYPSE (Flatsedge); type: in vivo; conditions: preemergence weeds, rated three to four weeks after treatment; note: meaning of each grade not given here
[8] = test system: Sagittaria pygmaea, L.; experiment: Preemergence weed control under flooded paddy conditions, SAGPY (Arrowhead (Pygmaea)); type: in vivo; conditions: preemergence weeds, flooded paddy, rated three to four weeks after treatment; note: meaning of each grade not given here
[9] = test system: Cyperus serotinus, Rottb.; experiment: Postemergence weed control under flooded paddy conditions, CYPSE (Flatsedge); type: in vivo; conditions: rated three to four weeks after treatment
[10] = test system: Echinochloa oryzoides (Ard.) Fritsch.; experiment: Postemergence weed control under flooded paddy conditions, ECHORC (Watergrass (Calif.)); type: in vivo; conditions: rated three to four weeks after treatment
[11] = test system: Cyperus iria; experiment: Postemergence weed control under flooded paddy conditions, CYPIR (Rice Flatsedge); type: in vivo; conditions: rated three to four weeks after treatment
[12] = test system: Oryza sativa, (L.) Tebonnet; experiment: Rice tolerance to post-transplant applications under flooded paddy conditions (Example 187), ORYSAT (Rice, Tebonnet); conditions: rated three to four weeks after treatment; note: meaning of each grade not given here

CC(C)Oc1cccc(-c2nsc3ccc(-n4c(=O)cc(C(F)(F)F)n(C)c4=O)cc23)c1 [Example 328, 2,4(1H,3H)-Pyrimidinedione, 3-[3-(m-isopropoxyphenyl)-1,2-benzisothiazol-5-yl]-1-methyl-6-(trifluoromethyl)-]
herbicidal effect rating, ECHORC ([1]; Rate 0.0320 kg/ha): 9.0 | herbicidal effect rating, ECHORC ([1]; Rate 0.0620 kg/ha): 9.0 | herbicidal effect rating, ECHORC ([1]; Rate 0.1250 kg/ha): 9.0 | herbicidal effect rating, ECHORC ([1]; Rate 0.2500 kg/ha): 9.0 | herbicidal effect rating, SAGPY ([2]; Rate 0.0320 kg/ha): 0.0 | herbicidal effect rating, SAGPY ([2]; Rate 0.0620 kg/ha): 0.0 | herbicidal effect rating, SAGPY ([2]; Rate 0.1250 kg/ha): 2.0 | herbicidal effect rating, SAGPY ([2]; Rate 0.2500 kg/ha): 6.0 | herbicidal effect rating, MOOVA ([3]; Rate 0.0320 kg/ha): 9.0 | herbicidal effect rating, MOOVA ([3]; Rate 0.0620 kg/ha): 9.0 | herbicidal effect rating, MOOVA ([3]; Rate 0.1250 kg/ha): 9.0 | herbicidal effect rating, MOOVA ([3]; Rate 0.2500 kg/ha): 9.0 | herbicidal effect rating, ORYSAT (rice tolerance) ([4]; Rate 0.0320 kg/ha): 2.0 | herbicidal effect rating, ORYSAT (rice tolerance) ([4]; Rate 0.0620 kg/ha): 4.0 | herbicidal effect rating, ORYSAT (rice tolerance) ([4]; Rate 0.1250 kg/ha): 4.0 | herbicidal effect rating, ORYSAT (rice tolerance) ([4]; Rate 0.2500 kg/ha): 4.0 | herbicidal effect rating, MOOVA ([5]; Rate 0.0320 kg/ha): 9.0 | herbicidal effect rating, MOOVA ([5]; Rate 0.0620 kg/ha): 9.0 | herbicidal effect rating, MOOVA ([5]; Rate 0.1250 kg/ha): 9.0 | herbicidal effect rating, MOOVA ([5]; Rate 0.2500 kg/ha): 9.0 | herbicidal effect rating, CYPIR ([6]; Rate 0.0320 kg/ha): 9.0 | herbicidal effect rating, CYPIR ([6]; Rate 0.0620 kg/ha): 9.0 | herbicidal effect rating, CYPIR ([6]; Rate 0.1250 kg/ha): 9.0 | herbicidal effect rating, CYPIR ([6]; Rate 0.2500 kg/ha): 9.0 | herbicidal effect rating, CYPSE ([7]; Rate 0.0320 kg/ha): 6.0 | herbicidal effect rating, CYPSE ([7]; Rate 0.0620 kg/ha): 6.0 | herbicidal effect rating, CYPSE ([7]; Rate 0.1250 kg/ha): 7.5 | herbicidal effect rating, CYPSE ([7]; Rate 0.2500 kg/ha): 9.0 | herbicidal effect rating, SAGPY ([8]; Rate 0.0320 kg/ha): 2.5 | herbicidal effect rating, SAGPY ([8]; Rate 0.0620 kg/ha): 3.0 | herbicidal effect rating, SAGPY ([8]; Rate 0.1250 kg/ha): 4.5 | herbicidal effect rating, SAGPY ([8]; Rate 0.2500 kg/ha): 4.5 | herbicidal effect rating, CYPSE ([9]; Rate 0.0320 kg/ha): 0.0 | herbicidal effect rating, CYPSE ([9]; Rate 0.0620 kg/ha): 2.0 | herbicidal effect rating, CYPSE ([9]; Rate 0.1250 kg/ha): 6.0 | herbicidal effect rating, CYPSE ([9]; Rate 0.2500 kg/ha): 6.0 | herbicidal effect rating, ECHORC ([10]; Rate 0.0320 kg/ha): 7.0 | herbicidal effect rating, ECHORC ([10]; Rate 0.0620 kg/ha): 9.0 | herbicidal effect rating, ECHORC ([10]; Rate 0.1250 kg/ha): 9.0 | herbicidal effect rating, ECHORC ([10]; Rate 0.2500 kg/ha): 9.0 | herbicidal effect rating, CYPIR ([11]; Rate 0.0320 kg/ha): 9.0 | herbicidal effect rating, CYPIR ([11]; Rate 0.0620 kg/ha): 9.0 | herbicidal effect rating, CYPIR ([11]; Rate 0.1250 kg/ha): 9.0 | herbicidal effect rating, CYPIR ([11]; Rate 0.2500 kg/ha): 9.0 | herbicidal effect rating ORYSAT ([12]; Rate 0.0320 kg/ha): 2.0 | herbicidal effect rating ORYSAT ([12]; Rate 0.0620 kg/ha): 3.0 | herbicidal effect rating ORYSAT ([12]; Rate 0.1250 kg/ha): 4.0 | herbicidal effect rating ORYSAT ([12]; Rate 0.2500 kg/ha): 4.5

Source: patent EP0908457B1, “3-(1,2-benzisothiazol- and isoxazol-5-Y1)-2,4(1H,3H)-pyrimidinedione or thione and 3-(1,2-benzisothiazol- and isoxazol-5-y1)-4(3H)-pyrimidinone or thione herbicidal agents” (BASF AKTIENGESELLSCHAFT, priority 1997, dated 1999)
